Experimental data reported in patent publication US10342806B2, “Hormone treatment for age-related hearing loss-presbycusis” (priority 2014, dated 2019).

Experiments:
[1] = test system: CBA/CaJ mice; assay: Auditory brainstem response (ABR) thresholds in aging CBA/CaJ mice; format: in vivo, mouse
Description: After 60 (2 months) or 120 days (4 months) of ALD implantation, mice were anesthetized with a combination of ketamine and xylazine (100 μl i.p. of sterile saline containing 100 mg/ml ketamine and […]) for ABR measurements.
Auditory brainstem responses (ABRs) were measured again at 2 and 4 months after treatment started
Auditory brainstem responses were obtained as follows. The mice were anesthetized with a mixture of ketamine/xylazine (120 and 10 mg/kg body weight, respectively, intraperitoneal injection) prior to all experimental sessions. All recording sessions were completed in a soundproof acoustic chamber (IAC) with body temperature maintained with a heating pad. ABRs were measured using Biosig (TDT, Alachua, Fla.) data-acquisition system which recorded responses to 5 ms tone pips ([…] rise-fall times) with a cos^2 onset envelope, presented at rate of 29/sec. Wave I threshold was defined as the lowest intensity which elicited a clearly replicable response. ABRs were measured pre-treatment and post-treatment at 2 and 4 mon. The pre-treatment ABR threshold was used as the baseline to calculate the thresholds shifts. The wave I peak-to-peak amplitudes were analyzed. Data was compared using GraphPad Prism 5.0 (GraphPad Software, Inc. La Jolla, Calif., USA.
As male mice weigh on average 28.0 g at week 9 and female mice 23.1 g, doses of the anti-inflammatory were designed to bracket a dose of 5 mg/kg/day. A total five groups (n=8, half male and half female) were tested. Treatment continued for 120 days or until the mouse was euthanized. […] Death was confirmed by terminal phlebotomy/exsanguinations and perfusion.
Mice were treated at middle age, as above, using 0.0016 mg/day of D-aldosterone, a combination of 0.0016 mg/day of D-aldosterone and 0.042 mg/day of Aspirin; and a control placebo (saline).

[2] = test system: LC3-I, -II, and LAMP-2; assay: Lysosome pathway markers in HT-29 cells, Western blot; format: cell-based, human; details: ALD 1 μM, MG-132 20 μM, CQ 50 μM, 9 h
Description: FIG. 23(A) is a blot and showing ubiquitination, but not the lysosome pathway, is involved in the regulation of NKCC1 by ALD. To exclude the possibility that depletion of free ubiquitin by the prolonged MG-132 treatment triggered nonspecific inhibition of lysosome degradation of NKCC1 and investigate whether ALD is involved in a lysosome pathway, a parallel experiment with chloroquine (CQ) was performed. Here, the positive marks (+) indicate application of ALD (1 μM), MG132 (20 μM), CQ (50 μM), ALD+CQ, and MG132+CQ for 9 h. An autophagosome marker, autophagy-related gene 8 named as light chain 3 (LC3), and the lysosome-associated membrane protein 2 (LAMP-2) were used was indicators of lysosome pathway activation (phagocytic activity) under treatment with CQ.
Western blot. Cell lysates were prepared in RIPA buffer (Pierce 89901; Thermo Scientific, Waltham, Mass.) with protease inhibitor cocktail (78430; Thermo Scientific). Cell samples were homogenized in buffer, followed by centrifugation at 2,000 rpm for 10 min at 4° C. Supernatants were subjected to Western blot analysis by loading 200 μg of protein per lane, after the protein concentrations were determined by Bradford protein assay. Proteins were fractionated by SDS-PAGE gel electrophoresis and transferred to a PVDF blotting membrane (Whatman, Piscataway, N.J.). The blot was incubated with primary antibodies against β-actin and Na—K-2C1 cotransport protein (Cell Signaling, Danvers Mass.); primary antibodies for p-SGK1, SGK1, pNedd4-2, and Nedd4-2 were utilized (concentration 1:1,000). The secondary antibody was horseradish peroxidaseconjugated goat anti-rabbit IgG (1:2,000; Cell Signaling).
Ubiquitination, but not the lysosome pathway, is involved in NKCC1 induction by ALD. A parallel experiment was performed with chloroquine (CQ), a lysosome inhibitor, to exclude the possibility that prolonged MG-132 treatment depleted free ubiquitin by nonspecific inhibition of lysosome degradation of NKCC1 and to confirm whether or not ALD is involved in a lysosome pathway. […]

[3] = test system: NKCC1 ubiquitination; assay: Immunoprecipitation (autoubiquitination assay) of NKCC1 in HT-29 cells; format: cell-based, human; details: MG132 20 μM 2 h, then ALD 1 μM and/or GSK 650394 50 μM for 24 h
Description: Immunoprecipitation (autoubiquitination assay) and western blot analysis. An autoubiquitination assay was followed (Garg, et al., Effect of the Na—K-2Cl cotransporter NKCC1 on systemic blood pressure and smooth muscle tone. Am J Physiol Heart Circ Physiol 292: H2100-H2105, 2007). Cell extracts were prepared in a modified radioimmunoprecipitation assay 1 (RIPA) buffer, containing the following (in mM): 50 Tris·HCl at pH 7.4, 150 NaCl, 1 EDTA, and 1 dithiothreitol with 1% Nonidet P-40, 0.1% SDS; in a 1:200-diluted protease inhibitor cocktail (Sigma), containing the following (in mM): 1 PMSF, 10 NEM, and 0.1 iodoacetamide Immunoprecipitations were accomplished using a rabbit polyclonal anti-NKCC1 antibody (Cell Signaling). Antibody was bound to lysate with endogenous NKCC1, and then beads were added. Bound proteins were eluted in 1× SDS sample buffer, fractionated on an SDS-polyacrylamide gel, transferred onto a […] membrane (GE Healthcare, Piscataway, N.J.), and immunoblotted with anti-ubiquitin antibody visualized using enhanced chemiluminescence detection reagents (Pears, Shelton Conn.) according to the manufacturer's instructions.
Immunoblotting with anti-ubiquitin antibody was performed as described above.
ALD decreases the endogenous ubiquitination of NKCC1 and inhibition of SGK1 activation blocks this downregulation. […]

[4] = test system: CBA mice; details: ALD-treated aging CBA mice (Halonen et al. 2014); cited from earlier work

C[C@]12CCC(=O)C=C1CC[C@@H]1[C@@H]2[C@@H](O)C[C@]2(C=O)[C@@H](C(=O)CO)CC[C@@H]12 [ALD, aldosterone]
ABR frequency response ([1]; 12, 24, 32, 36 kHz at 2 months and 4 months, 0.0016 mg/day): showed improvement | ABR thresholds, control vs ALD treated group ([1]; 24, 32 and 36 kHz, at 120 days): significantly elevated in the control, non-treated, group relative to the ALD treated group | ABR shift / ABR thresholds ([1]; 24 kHz and 36 kHz, 2 and 4 month of treatment, vs placebo, Example 7): reduced ABR shifts | ABR peak 1 amplitude ([1]; high sound levels, relative to the control group): increased significantly at high sound levels | dose optimal for ABR threshold improvements ([1]; slow-release subcutaneous pellets, doses 0.00048 to 0.00476 mg/day, 60 or 120 days, relative to age-matched control mice): 0.0016 mg/day | lysosome pathway markers LC3II and LAMP-2 expression levels [2]: without increasing lysosome pathway markers | endogenous ubiquitinated NKCC1 [3]: significantly reduced | auditory temporal processing (prepulse inhibition) [4]: provocative increases in auditory temporal processing
